# Assay results published in patent publication US9134309B2, “Polypeptide display libraries and methods of making and using thereof” (The Regents of the University of California, priority 2003, dated 2015).
# Molecular target: T1, streptavidin (Streptomyces avidinii, UniProt P22629)
# T1 construct: purchased Molecular Probes (Eugene, Oreg.)
# Assay: dissociation of SA-1 peptide grafted into YFP from streptavidin coated beads, flow cytometry
# Format: binding
# Settings: SA-1 inserted into YFP after Y145, soluble fusion protein, 1 μM biotin
# Description: See Baird, G. S. et al. (1999) PNAS USA 96(20):11241-11246, which is herein incorporated by reference. […] See Bessette, P. H., et al. (1999) PNAS USA 96(24):13703-13708, which is herein incorporated by reference. […] Using flow cytometry, the dissociation rate constant of the steptavidin binding fluorescent protein was determined to be 0.02 s^−1.
# The soluble protein was isolated using B-PER II bacterial protein extraction reagent (Pierce Biotechnology, Rockford, Ill.) following the manufacturer's protocol. About 10^7 streptavidin coated magnetic beads (Dynal Inc., Brown Deer, Wis.) were added to 40 μl of cell lysate and equilibrated at room temperature for 20 minutes. The beads were washed once in 2 ml of PBS; biotin was added to a final concentration of 1 μM, and immediately analyzed by flow cytometry as above. Lysate from a strain expressing YFP with a T7•tag insertion at the same location was used as a negative control.
# T1 sequence (P22629 25-183): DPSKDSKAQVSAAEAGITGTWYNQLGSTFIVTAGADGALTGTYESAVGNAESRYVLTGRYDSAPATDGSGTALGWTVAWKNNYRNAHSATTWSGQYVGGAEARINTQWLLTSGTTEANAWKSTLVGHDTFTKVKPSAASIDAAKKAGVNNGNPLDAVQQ
sequence,measurement,value
RLEICQNVCYYLGTL [SA-1],dissociation rate constant,0.02 s⁻¹
